The target of test [1] is T1, human A1 receptor subtype (Homo sapiens, UniProt P30542).
T1 sequence (P30542 1-326): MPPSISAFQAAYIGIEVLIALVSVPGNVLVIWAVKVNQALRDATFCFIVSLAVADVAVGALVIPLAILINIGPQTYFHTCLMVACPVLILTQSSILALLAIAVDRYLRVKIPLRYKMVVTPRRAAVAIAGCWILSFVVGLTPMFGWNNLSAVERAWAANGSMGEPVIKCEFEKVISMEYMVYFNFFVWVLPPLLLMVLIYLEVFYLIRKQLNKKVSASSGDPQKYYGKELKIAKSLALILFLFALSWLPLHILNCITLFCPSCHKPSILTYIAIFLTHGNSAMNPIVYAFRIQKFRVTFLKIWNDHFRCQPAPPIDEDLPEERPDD
The conditions noted are these: for Ki: read-out: A1 Binding Ki, Tables 7-13, deazapurine analogues.

Test [2] has as its target T2, human A2a receptor subtype (Homo sapiens, UniProt P29274).
T2 construct: purchased Receptor Biology (Beltsville, Md.) RB-HA2a; host or cells: HEK-293, stably expressing
Put plainly: Adenosine 2a receptor subtype competition radioligand binding, [3H]CGS-21680, HEK293 membranes.

Test [3] deals with T3, human A2b receptor subtype (Homo sapiens, UniProt P29275).
T3 construct: purchased Receptor Biology (Beltsville, Md.) RB-HA2b; host or cells: HEK-293, stably expressing
T3 sequence (P29275 1-332): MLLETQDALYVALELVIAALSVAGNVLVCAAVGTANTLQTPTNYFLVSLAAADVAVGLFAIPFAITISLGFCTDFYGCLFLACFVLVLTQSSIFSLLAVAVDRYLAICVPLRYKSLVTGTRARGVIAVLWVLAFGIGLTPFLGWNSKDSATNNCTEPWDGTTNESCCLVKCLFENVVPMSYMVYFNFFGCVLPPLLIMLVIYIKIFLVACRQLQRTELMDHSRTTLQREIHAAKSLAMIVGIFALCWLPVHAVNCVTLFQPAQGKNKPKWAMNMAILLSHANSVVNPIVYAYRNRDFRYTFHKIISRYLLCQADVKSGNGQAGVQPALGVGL
Description: Adenosine 2b receptor subtype competition radioligand binding, [3H]DPCPX, HEK293 membranes.

Test [4] concerns the target T4, human A3 receptor subtype (Homo sapiens, UniProt P0DMS8).
T4 construct: purchased Receptor Biology (Beltsville, Md.) RB-HA3; host or cells: HEK-293, stably expressing
T4 sequence (P0DMS8 1-318): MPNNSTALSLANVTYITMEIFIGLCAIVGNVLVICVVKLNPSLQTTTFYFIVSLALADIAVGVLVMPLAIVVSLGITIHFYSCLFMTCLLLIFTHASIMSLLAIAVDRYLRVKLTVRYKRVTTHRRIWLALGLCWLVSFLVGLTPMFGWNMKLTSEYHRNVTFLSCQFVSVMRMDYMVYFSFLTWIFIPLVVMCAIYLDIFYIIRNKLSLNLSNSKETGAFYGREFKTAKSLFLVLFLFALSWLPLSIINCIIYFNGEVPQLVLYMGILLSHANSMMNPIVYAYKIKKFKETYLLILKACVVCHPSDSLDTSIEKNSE
Put plainly: Adenosine 3 receptor competition radioligand binding, [125I]AB-MECA, HEK293 membranes.

The test system of the next test is PDE4 (Human). Put plainly: PDE4 inhibition. The format is biochemical.
The target of test [5] is T1, human A1 receptor subtype. Description: biochemical.
The next test has as its target T5, hA3R (Homo sapiens, UniProt P0DMS8).
T5 sequence (P0DMS8 1-318): T4 sequence (P0DMS8 1-318)
Description: Displacement binding of [3H]CPX, yeast membranes expressing human A3 receptor. The conditions noted are these: read-out: IC50 [nM] hA3R, 0.4 nM [3H]CPX.

The source of these data is US20030139427A1, “Bicyclic pyrimidinyl derivatives and methods of use thereof” (OSI Pharmaceuticals Inc., priority 2002, published 2003).

Read-outs that look alike come from different tables or passages of the source.

For orientation: Ki means the equilibrium dissociation constant of an inhibitor or competing ligand from its target. As a reminder, the IC50 is the concentration needed to halve the response being measured.

T2 sequence (P29274 whole entry): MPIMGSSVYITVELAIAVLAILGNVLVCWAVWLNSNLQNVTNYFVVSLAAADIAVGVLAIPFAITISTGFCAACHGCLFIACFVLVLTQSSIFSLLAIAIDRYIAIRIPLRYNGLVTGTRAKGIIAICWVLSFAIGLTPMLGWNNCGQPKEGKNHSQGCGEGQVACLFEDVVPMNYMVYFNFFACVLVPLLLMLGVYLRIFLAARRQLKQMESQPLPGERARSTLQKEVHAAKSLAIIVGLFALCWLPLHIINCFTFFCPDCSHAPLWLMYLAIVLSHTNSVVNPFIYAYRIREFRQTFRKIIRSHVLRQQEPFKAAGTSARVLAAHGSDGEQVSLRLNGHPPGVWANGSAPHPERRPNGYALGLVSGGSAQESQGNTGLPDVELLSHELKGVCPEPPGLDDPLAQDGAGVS

On to `Cc1[nH]c2nc(-c3ccccc3)nc(NC3CCC(OC(=O)c4ccccc4)CC3)c2c1C` (stereo not drawn) [Compound 606], for which the Ki in test [1] turned out to be 298 nM.

Regarding `CC(=O)NCCNc1nc(-c2ccccc2)nc2[nH]c(C)c(C)c12` [Compound 1300], in test [2], the Ki was in the range of 18 to 48.6 nM.

Turning to `O[C@H]1CC[C@H](Nc2nc(-c3ccccc3)nc3[nH]ncc23)CC1`, the Ki in test [2] (Table 6, read-out: Ki − A2A) was determined as 432 nM; in test [3] (Table 6, read-out: Ki − A2B), 1460 nM; in test [4] (Table 6, read-out: Ki − A3), 664 nM; in test [5], 4.4 nM. In addition, the “PDE4 (Human) Inhibition at 10 μM” value with PDE4 (Human) is recorded as 89%.

Turning to `O=c1nc2[nH]c3ccccc3nc-2c(=O)[nH]1` [Alloxazine], on hA3R, the IC50 is 8220 nM.

For `NC(=O)[C@@H]1CCCN1c1nc(-c2ccccc2)nc2[nH]ncc12`, the Ki was 66.8 nM in test [2] (Table 6, read-out: Ki − A2A); 97.4 nM in test [3] (Table 6, read-out: Ki − A2B); 261 nM in test [4] (Table 6, read-out: Ki − A3); 0.6 nM in test [5]. Moreover, the “PDE4 (Human) Inhibition at 10 μM” value in the test with PDE4 (Human) was determined as 34%.

Consider `NC(=O)[C@@H]1CCCN1c1nc(-c2ccccc2)nc2[nH]cnc12`, for which the Ki in test [2] (Table 6, read-out: Ki − A2A) worked out at 19.1 nM; in test [3] (Table 6, read-out: Ki − A2B), 63.1 nM; in test [5] it was 0.9 nM.

Consider `CC(=O)NCCNc1nc(-c2ccccc2)nc2[nH]cnc12`, for which the inhibition constant (Ki) in test [2] (Table 6, read-out: Ki − A2A) stood at 24.8 nM; in test [3] (Table 6, read-out: Ki − A2B), 22 nM; in test [5] it was 7.4 nM.

Regarding `Cc1[nH]c2nc(-c3ccccc3)nc(N[C@H]3CC[C@H](O)CC3)c2c1C` [Compound 1304], the inhibitory constant (Ki) amounted to 138 nM in test [3] (Table 14, read-out: Binding Ki (nM) A2b) and 21.5 nM in test [4] (Table 14, read-out: Binding Ki (nM) A3).

For the compound `NC(=O)[C@@H]1CCCN1c1nc(-c2ccccc2)nc2[nH]nnc12`, the Ki in test [2] (Table 6, read-out: Ki − A2A) turned out to be 5540 nM; in test [3] (Table 6, read-out: Ki − A2B), 5560 nM; in test [5], 81.3 nM.

Take `CC(=O)NCCNc1nc(-c2ccccc2)nc2[nH]ncc12`: the Ki in test [2] (Table 6, read-out: Ki − A2A) is 49.5 nM; in test [3] (Table 6, read-out: Ki − A2B) it was 32.1 nM; in test [5] it was 11.4 nM.

As to `Cc1[nH]c2nc(-c3ccccc3)nc(NC3CCC(OC(=O)c4ccccc4)CC3)c2c1C` (stereo not drawn) [Compound 611], the Ki in test [1] was 786 nM.

On to `O[C@H]1CC[C@H](Nc2nc(-c3ccccc3)nc3[nH]cnc23)CC1`, for which the Ki in test [2] (Table 6, read-out: Ki − A2A) came out at 96.8 nM; in test [3] (Table 6, read-out: Ki − A2B), 69.3 nM; in test [4] (Table 6, read-out: Ki − A3), 174 nM; in test [5] it was 1.5 nM. The “PDE4 (Human) Inhibition at 10 μM” value with PDE4 (Human) is reported as 79%.

Regarding `O[C@H]1CC[C@H](Nc2nc(-c3ccncc3)nc3[nH]ccc23)CC1` [Compound 1321], the “A3, % activity @ 10 μM” value in test [4] (Table 14, 10 μM) stood at 54%^8.

Consider `NC(=O)[C@H]1CCCN1c1nc(-c2ccccc2)nc2[nH]ncc12`, for which the Ki in test [2] (Table 6, read-out: Ki − A2A) is 243 nM; in test [3] (Table 6, read-out: Ki − A2B) it was 1480 nM; in test [5], 76.7 nM.

On to `NC(=O)[C@H]1CCCN1c1nc(-c2ccccc2)nc2[nH]cnc12`, for which the inhibition constant Ki in test [2] (Table 6, read-out: Ki − A2A) was 21.1 nM; in test [3] (Table 6, read-out: Ki − A2B), 168 nM; in test [5], 12.3 nM.

`CNC(=O)NCCCNc1nc(-c2ccccc2)nc2[nH]c(C)c(C)c12` [Compound 1310]: in test [2] (Table 14), the “A2a, value printed as % in Ki column” value came to 76%.

Regarding `O[C@H]1CC[C@H](Nc2nc(-c3ccccc3)nc3[nH]nnc23)CC1`, the Ki in test [2] (Table 6, read-out: Ki − A2A) was determined as 1530 nM; in test [3] (Table 6, read-out: Ki − A2B) it was 4210 nM; in test [5], 52.4 nM.

Turning to `O[C@H]1CC[C@H](Nc2nc(-c3ccccc3)nc3[nH]c(CN4CCOCC4)cc23)CC1` [Compound 1503], in test [1] (selectivity versus other three subtypes), the “Ki-A1 (Adenosine A1 Receptor Selective Compounds)” value is “* (at least 10 times more selective than other three subtypes.)”.
